Read-outs that look alike come from different tables or passages of the source.
Tests used:
[1] = system: phenylephrine-induced intraurethral hypertension; assay: phenylephrine-induced intraurethral hypertension in anaesthetized cats; format: in vivo, cat; conditions: for ED50: Felis catus, phenylephrine 15 μg/kg/min intravenous, read-out: ED50 urethra (dose decreasing by 50% the hypertension induced by phenylephrine); for ED50 / D/U: ED50 (diastolic pressure)/ED50 (urethra): iv., anaesthetized cat; for urogenital selectivity (in words): in vivo; for D/U: ED50 (diastolic pressure)/ED50 (urethra): urogenital selectivity
Source text: (§1) In an in vivo animal model, in anaesthetized cat, intraurethral hypertension can be induced by α1 -adrenoceptor agonists [e.g. phenylephrine, which is chemically (-)-1-(3-hydroxyphenyl)-2-(methylamino)ethanol]. This hypertension-inducing effect can be antagonized by α1 -adrenoceptor antagonists. The antihypertensive effect is expressed by reduction of the diastolic pressure. Results of this experiment are summarized in Table 1 (the experiment is described in detail in the Pharmacological part).
^a Dose decreasing by 50% the hypertension induced by a 15 μg/kg/min
(§2) Effect on the intraurethral and diastolic blood pressure on anaesthetized cats
(§3) This investigation was performed according to the method of Lefevre et al. [Br. J. Pharmacol. 109, 1282 (1993)]. The essence of the method can be summarized as follows.
(§4) Cannules were introduced into the femoral artery and vein of pentobarbitone-anaesthetized, artificially ventilated cats of both sexes weighing 2.5 to 3.5 kg for administration of the compounds and measurement of blood pressure. The bladder was exposed by lower median laporotomy and a catheter was introduced into the urethra through the trigonum. The arterial and intraurethral pressures were registered on a Hellige polygraph by using a pressure transducer.
(§5) For excluding autonomic effects mediated not through α-adrenoceptors,mecamylamine, atropine and propranolol were administered intravenously in doses of 0.5, 0.75 and 0.5 mg/kg, respectively.
(§6) An increase in intraurethral and blood pressure was induced by phenylephrine infusion of 15 μg/kg/min; the change over the baseline pressure was considered to be 100%. The test substances were administered intravenously in 1-1000 μg/kg cumulative bolus doses. An interval of at least 5 minutes was allowed after each dose. The dose of α-antagonist inhibiting by 50% the phenylephrine-induced increase in urethral pressure ([…] uretha) as well as the dose […] by 50% the phenylephrine-induced diastolic total pressure elevation (ED50 diastolic value) were determined.

diastolic pressure = assay: phenylephrine-induced diastolic blood pressure increase in anaesthetized cats; format: in vivo, cat; conditions: for ED50: Felis catus, iv., anaesthetized cat, phenylephrine 15 μg/kg/min, read-out: ED50 diastolic pressure (dose decreasing by 50% the diastolic total pressure increased by phenylephrine); for influence on other cardiovascular parameters (in words): doses that diminish the intraurethral pressure
Source text: as §1
^b Dose decreasing by 50% the diastolic total pressure increased by
as §2, §3, §4, §5, §6

[2] = system: α1-adrenoceptor (mesenteric artery); assay: isolated organ: postsynaptic α1-adrenoceptor antagonism on mesenteric artery; design: species or system rat; conditions: agonist phenylephrine; 37° C; 30-minute incubation with antagonist
Experimental: (§7) In addition, investigations were performed on blood vessel and human hyperplasic prostate tissue preparations. In these experiments, a mesenteric artery was used as a model of resistance vessels which affect the blood pressure. We measured the extent of inhibition of the compounds of the invention and that of the reference drugs, respectively, on the contraction-inducing action of the α1 -agonist (phenylephrine).The α1 -adrenoceptor antagonism was then characterized by pA2 values.
(§8) α1 -Adrenoceptor antagonistic effect in isolated organ experiments
A) Investigation of postsynaptic α1 -adrenoceptors on the rate mesenteric artery
This test was performed according to the method of Angus et al. [J. Physiol.

[3] = target: T1, α1-adrenoceptor (human hyperplasic prostate tissue) (Homo sapiens, UniProt P35348); assay: isolated organ: postsynaptic α1-adrenoceptor antagonism on human hyperplasic prostate tissue; conditions: agonist phenylephrine; 37° C; 30 minutes incubation with antagonist; read-out: pA2 human hyperplasic prostate tissue (converted)
T1 construct: Strips prepared from human hyperplasic prostate tissue; from tissue; host or cells: human hyperplastic prostate strips
T1 sequence (P35348 1-466): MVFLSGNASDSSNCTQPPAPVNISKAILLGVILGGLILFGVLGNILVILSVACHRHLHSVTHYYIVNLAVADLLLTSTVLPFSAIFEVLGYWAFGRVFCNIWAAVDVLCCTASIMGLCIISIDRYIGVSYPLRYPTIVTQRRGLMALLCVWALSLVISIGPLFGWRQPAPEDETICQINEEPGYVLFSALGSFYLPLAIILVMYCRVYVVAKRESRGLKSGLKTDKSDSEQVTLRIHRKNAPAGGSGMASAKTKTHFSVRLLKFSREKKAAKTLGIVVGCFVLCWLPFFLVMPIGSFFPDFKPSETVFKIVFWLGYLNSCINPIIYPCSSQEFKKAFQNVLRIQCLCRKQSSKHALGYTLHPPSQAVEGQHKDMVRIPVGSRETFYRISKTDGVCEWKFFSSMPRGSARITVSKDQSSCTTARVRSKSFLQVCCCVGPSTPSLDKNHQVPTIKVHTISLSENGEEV
Experimental: as §7, §8
(§9) B) Investigation of postsynaptic α1 -adrenoceptors on human prostate preparation
(§10) This test was performed according to the method of Scheu-Eei Yu et al. [Eur. J. Pharmacol. 252, 29 (1994)].
(§11) Strips prepared from human hyperplasic prostate tissue were suspended in a Krebs solution bubbled with carbogen at 37° C. A pre-tension of 1 g and an equilibration period of 1 hour were used. A dose-effect curve was established for phenylephrine. Then, after washing out and incubation with the antagonist for 30 minutes, the dose/effect curve was again determined. For characterizing the antagonistic effects, pA2 values were calculated.

[4] = system: α1-adrenoceptor (human hyperplasic prostate tissue); assay: as above; conditions: for α1-adrenoceptor antagonistic effect (in words): Table 2 data, prostate tissue and resistance artery; for Selectivity (prostate/artery): antilogarithmic ratio of pA2 value, human prostate vs rat mesenteric artery
Experimental: as §7, §8, §9, §10, §11

[5] = target: T2, presynaptic α2-adrenoceptor (vas deferens) (Rattus norvegicus, UniProt P22909); assay: presynaptic α2-adrenoceptor antagonism on rat vas deferens preparation; conditions: agonist xylazine, 35° C, electrically stimulated, read-out: pA2 presynaptic (converted)
T2 construct: Vas deferents were isolated from SPRD rats; from tissue; host or cells: vas deferens of SPRD rats, electrically stimulated
T2 sequence (P22909 1-465): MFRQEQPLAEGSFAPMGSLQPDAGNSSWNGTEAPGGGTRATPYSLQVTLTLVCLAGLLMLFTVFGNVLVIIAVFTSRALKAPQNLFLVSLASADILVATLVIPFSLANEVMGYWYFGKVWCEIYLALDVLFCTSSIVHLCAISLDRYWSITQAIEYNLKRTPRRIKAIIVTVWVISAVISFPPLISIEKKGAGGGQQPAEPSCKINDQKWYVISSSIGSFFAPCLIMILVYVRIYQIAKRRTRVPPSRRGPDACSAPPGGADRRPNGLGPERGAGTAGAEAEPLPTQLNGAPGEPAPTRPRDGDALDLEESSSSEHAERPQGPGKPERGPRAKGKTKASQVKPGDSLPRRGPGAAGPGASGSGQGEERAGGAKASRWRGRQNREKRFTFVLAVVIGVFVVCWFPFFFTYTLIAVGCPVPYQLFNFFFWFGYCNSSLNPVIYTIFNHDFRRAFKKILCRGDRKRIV
Experimental: (§12) The antagonism was characterized by the pA2 values.
Pre- and postsynaptic α1 -adrenoceptor antagonistic effects
A) Presynaptic α2 -adrenoceptor antagonism on the rat vas deference preparation
Briefly, the experiment was performed as follows.
Vas deferents were isolated from SPRD rats according to Vizi et al. [N. S. Arch. Pharmcol.
A dose/effect curve was determined for xylazine. Then, after washing out, the organ was incubated with the antagonist. The dose/effect curve was taken again with xylazine in the presence of the antagonist. The antagonism was characterized by the pA2 value determined according to the method of Arunlakshana and Schield [Br. J. Pharmcol.

[6] = target: T3, postsynaptic α2-adrenoceptor (vena saphena) (Canis lupus familiaris, UniProt A0A8I3Q7S8); assay: postsynaptic α2-adrenoceptor antagonism in dog vena saphena preparation
T3 construct: Postsynaptic α2 -adrenoceptor antagonism in dog vena saphena preparation; from tissue; host or cells: dog saphenous vein
T3 sequence (A0A8I3Q7S8 1-427): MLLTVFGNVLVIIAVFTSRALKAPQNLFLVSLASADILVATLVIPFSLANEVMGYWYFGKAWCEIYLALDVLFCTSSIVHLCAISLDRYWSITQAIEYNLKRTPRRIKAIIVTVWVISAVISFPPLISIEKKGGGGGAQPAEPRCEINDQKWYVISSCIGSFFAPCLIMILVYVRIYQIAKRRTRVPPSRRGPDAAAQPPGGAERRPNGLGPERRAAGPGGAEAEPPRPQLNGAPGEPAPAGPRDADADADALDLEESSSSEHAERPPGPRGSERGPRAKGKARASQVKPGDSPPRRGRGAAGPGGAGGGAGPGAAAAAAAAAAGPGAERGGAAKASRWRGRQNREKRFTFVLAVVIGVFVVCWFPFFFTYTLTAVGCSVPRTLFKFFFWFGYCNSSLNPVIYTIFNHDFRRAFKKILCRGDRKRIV
Experimental: as §12
(§13) B) Postsynaptic α2 -adrenoceptor antagonism in dog vena saphena preparation
(§14) This investigation was carried out by the method of Fowler et al. [J. Pharmcol.
(§15) β-Adrenoceptors were inactivated with propranolol. […] After 30 minutes, the organs were incubated with the […] for 30 minutes. Also here, the antagonism was characterized by the pA2 values.

[7] = system: postsynaptic α2-adrenoceptor (vena saphena); assay: as above; conditions: for selectivity toward the postsynaptic α2-receptors (in words) / α2-adrenoceptor antagonistic activity (in words): Table 3 data; for Selectivity postsynaptic/presynaptic: antilogarithmic ratio of pA2 values, dog vena saphena vs rat vas deferens
Experimental: as §12, §13, §14, §15

[8] = toxicity (statement, no test described)
[9] = background; cited from earlier work
[10] = dog vena saphena, agonist UK 14304, 30 minutes incubation, read-out: pA2 postsynaptic (converted)

Row | Compound | ED50 [1] [mg/kg] | urogenital selectivity (in words) [1] | D/U: ED50 (diastolic pressure)/ED50 (urethra) [1] | ED50 (diastolic pressure) [mg/kg] | influence on other cardiovascular parameters (in words) (diastolic pressure) | pA2 rat mesenteric artery [2] | Kb [3] [µM] | α1-adrenoceptor antagonistic effect (in words) [4] | Selectivity (prostate/artery) [4] | Kb [5] [µM] | Kb [6, 10] [µM] | selectivity toward the postsynaptic α2-receptors (in words) [7] | α2-adrenoceptor antagonistic activity (in words) [7] | Selectivity postsynaptic/presynaptic [7] | toxicity (in words) [8] | urogenital selectivity of available drugs (in words) [9] | Kb [6] [µM]
1 | O=c1cccnn1CCCNC[C@H]1COc2ccccc2O1 [(2)] | 0.0034 | significant urogenital selectivity | 26.5 | 0.09 | very weak influence only on other cardiovascular parameters | 7.68 | 0.00589 | strong α1 -adrenoceptor antagonistic effect | 3.55 | 0.155 | 0.00724 | excellent selectivity toward the postsynaptic α2 -receptors | strong α2 -adrenoceptor antagonistic activity | 21.4 | low toxicity | – | –
2 | COc1cc2nc(N3CCN(C(=O)c4ccco4)CC3)nc(N)c2cc1OC [Prazosin, reference compound] | 0.0187 | – | 1.3 | 0.025 | – | – | – | – | – | – | – | – | – | – | – | low or moderate | –
3 | O=c1cccnn1CCCNCC1COc2ccccc2O1 (racemic) [(3), 2-[3-([1,4]benzodioxan-2-ylmethylamino)-1-propyl]-3(2H)-pyridazinone, reference compound] | 0.0284 | – | 4.6 | 0.13 | – | 7.16 | 0.0309 | – | 2.24 | – | – | – | – | – | – | – | –
4 | COC(=O)[C@@H]1[C@H]2C[C@H]3c4[nH]c5ccccc5c4CCN3C[C@@H]2CC[C@@H]1O [Yohimbine, reference compound] | – | – | – | – | – | – | – | – | – | – | – | – | – | – | – | – | 0.00891
5 | COc1cc2nc(N(C)CCCNC(=O)C3CCCO3)nc(N)c2cc1OC (stereo not shown) [Alfuzosin] | – | – | – | – | – | 8.60 | – | – | – | – | – | – | – | – | – | – | –
6 | COc1cc2nc(N3CCN(C(=O)C4CCCO4)CC3)nc(N)c2cc1OC (stereo not shown) [Terazosin] | – | – | – | – | – | 8.45 | – | – | – | – | – | – | – | – | – | – | –
7 | O=c1cccnn1CCCNC[C@@H]1COc2ccccc2O1 [(1), R-2-[3-([1,4]-benzodioxan-2-ylmethylamino)-1-propyl]-3(2H)-pyridazinone] | 0.0139 | significant urogenital selectivity | > 63.9 | > 0.888 | very weak influence only on other cardiovascular parameters | 6.56 | 0.0631 | strong α1 -adrenoceptor antagonistic effect | 4.37 | 1.55 | 0.0135 | excellent selectivity toward the postsynaptic α2 -receptors | strong α2 -adrenoceptor antagonistic activity | 115.0 | low toxicity | – | –

From US6194411A, “3(2H)-pyridazinone derivatives and pharmaceutical compositions containing these compounds” (priority 1995, dated 2001)
